Experimental findings from PubChem BioAssay (NCI) are described below.

Among the test systems are A498 renal; RPMI-8226 leukemia; M14 melanoma; HCT-15 colon; K-562 leukemia; UO-31 renal; DMS 114 small cell lung; DLD-1 colon; DU-145 prostate; MDA-MB-231 breast.
What all share (experiment): NCI tumour cell line growth inhibition, 48 h

The structures appear in SMILES notation. Several values for one entry are separate records, joined by “and”; a condition that tells them apart may be missing. Equal values may be shown once.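 Method: 48-hour compound exposure of cells in 96-well plates, five concentrations, linear interpolation of endpoints. GI50 is the concentration that inhibits growth by half. TGI marks complete inhibition of growth.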 A value given as a limit tells only on which side of the number the result lay.

On to `O=C(N/C(=C\c1c(O)ccc2ccccc12)c1nc2ccccc2[nH]1)c1ccccc1`, for which the TGI in the experiment with A498 renal, in the experiment on RPMI-8226 leukemia, with M14 melanoma, with HCT-15 colon, in the experiment with K-562 leukemia and with UO-31 renal was > 100 µM in each case. In addition, the TGI in the experiment with DMS 114 small cell lung and in the experiment with DLD-1 colon was > 100 µM throughout.

On to `Cn1cnc([N+](=O)[O-])c1Sc1nnnn1C`, for which the TGI was > 100 µM in the experiment with A498 renal; > 100 µM in the experiment with RPMI-8226 leukemia; 28.4 µM in the experiment with M14 melanoma; 42.3 µM in the experiment on K-562 leukemia; 32.6 µM in the experiment on UO-31 renal; 32.2 µM with DMS 114 small cell lung. The compound further came in with a TGI with DLD-1 colon of 29.5 µM.

As to `CCN(CCCl)CCCCCNc1c2ccccc2nc2ccc(OC)cc12`, the TGI in the experiment on A498 renal is 3.52 µM; with RPMI-8226 leukemia it was 1.47 µM; in the experiment on M14 melanoma, 9.74 µM; with HCT-15 colon, 10.9 µM; with K-562 leukemia, 1.06 µM; in the experiment on UO-31 renal, 12.7 µM. The TGI with DMS 114 small cell lung worked out at 1.91 µM; in the experiment on DLD-1 colon, 2.95 µM.

As to `CC(CN1CC(=O)NC(=O)C1)N1CC(=O)NC(=O)C1` (stereo not given), the TGI with DU-145 prostate, in the experiment on A498 renal, in the experiment on RPMI-8226 leukemia, in the experiment on M14 melanoma, in the experiment with HCT-15 colon and in the experiment on K-562 leukemia was > 750 µM in each case. In addition, the TGI was > 750 µM with MDA-MB-231 breast, > 750 µM in the experiment on UO-31 renal, 409 µM in the experiment on DMS 114 small cell lung and > 750 µM in the experiment on DLD-1 colon.

Turning to `Cc1ccc(NC(=O)C(=O)C(C(=O)c2ccc3ccccc3c2)C2OC(=O)c3ccccc32)c(C)c1` (stereo not given), the TGI in the experiment on A498 renal was 20 µM; with RPMI-8226 leukemia, 40.4 µM; in the experiment with M14 melanoma it was 36.9 µM; in the experiment on HCT-15 colon it was 40.2 µM; in the experiment on K-562 leukemia, > 100 µM; with UO-31 renal, 36.7 µM. Further, the TGI with DMS 114 small cell lung was 31.7 µM; in the experiment with DLD-1 colon, 26.5 µM.

On to `CCCN(CCC)CCc1cc(C(C)=O)n(S(=O)(=O)c2ccc(C)cc2)c1`, for which the TGI in the experiment with A498 renal was > 100 µM; in the experiment on RPMI-8226 leukemia it was > 100 µM; in the experiment with M14 melanoma it was 40.2 µM; in the experiment on HCT-15 colon, > 100 µM; in the experiment on K-562 leukemia it was > 100 µM; in the experiment with UO-31 renal it was > 100 µM. The TGI with DMS 114 small cell lung and in the experiment with DLD-1 colon was > 100 µM each time.

Regarding `CN(C)CCNC(=O)c1cccc2nc3ccc4cccnc4c3nc12`, the TGI turned out to be 0.845 µM in the experiment on A498 renal; 3.03 µM in the experiment on M14 melanoma; 2.33 µM in the experiment with HCT-15 colon; 13.4 µM in the experiment with K-562 leukemia; 2.4 µM in the experiment on UO-31 renal; 2.12 µM in the experiment on DMS 114 small cell lung. For the same compound, the TGI in the experiment with DLD-1 colon was determined as 8.36 µM.

As to `COC1CC(C)C(OC)c2cc(O)cc(c2O)NC(=O)/C(C)=C/C=C\C(C)C(OC(N)=O)/C(C)=C\C(C)C1OC` (stereo not given), the GI50 is 1.59 µM in the experiment with DU-145 prostate; 18.4 µM with A498 renal; 0.174 µM and 0.383 µM in the experiment with RPMI-8226 leukemia; 0.267 µM and 1.27 µM with M14 melanoma; 4.91 µM in the experiment with HCT-15 colon; 0.0333 µM and 0.143 µM and 0.0785 µM in the experiment on K-562 leukemia. In addition, the GI50 with MDA-MB-231 breast is 0.291 µM and 0.243 µM and 1.16 µM; with UO-31 renal, 8.32 µM; with DMS 114 small cell lung it was 0.202 µM; in the experiment with DLD-1 colon, 4.65 µM and 5.28 µM. The TGI in the experiment with DU-145 prostate is 22.4 µM and 8.94 µM; in the experiment with A498 renal it was 38.1 µM and 14.8 µM; in the experiment with RPMI-8226 leukemia, 32.4 µM and 5.93 µM; in the experiment with M14 melanoma it was 18.7 µM and 10.5 µM; in the experiment with HCT-15 colon it was 11.9 µM and 12.7 µM; with MDA-MB-231 breast, 10.3 µM and 8.54 µM. The TGI in the experiment on UO-31 renal was 17.4 µM and 15.6 µM; in the experiment on DMS 114 small cell lung, 23.2 µM and 5.28 µM; in the experiment on DLD-1 colon, 10.5 µM and 11.2 µM.

As to `COc1cccc2c1C(=O)c1c(O)c3c(c(O)c1C2=O)C[C@@](O)(C(C)=O)C[C@@H]3OC1CC([N+]([O-])(Cc2ccccc2)Cc2ccccc2)C(O)C(C)O1` (stereo not given in full), the TGI amounted to 8.53 µM in the experiment on A498 renal; 3.07 µM in the experiment on M14 melanoma; 2.76 µM with HCT-15 colon; 2.54 µM in the experiment on UO-31 renal; 2.64 µM in the experiment with DMS 114 small cell lung; 3.22 µM in the experiment on DLD-1 colon.

Regarding `O=C1C=CC(=O)C2C1Cc1ccccc1C2c1ccccc1` (stereo not given), the TGI was 73.1 µM in the experiment with A498 renal; 67.6 µM in the experiment with RPMI-8226 leukemia; > 100 µM in the experiment on M14 melanoma; > 100 µM in the experiment on HCT-15 colon; > 100 µM in the experiment with K-562 leukemia; > 100 µM with UO-31 renal. Also, the TGI with DMS 114 small cell lung is 42.3 µM; in the experiment with DLD-1 colon, > 100 µM.

On to `CCO/C(CCn1[nH]c(=O)c(Cl)c(Cl)c1=O)=N\NC(=O)C(=O)NN`, for which the TGI with A498 renal, in the experiment on RPMI-8226 leukemia, with M14 melanoma, in the experiment on HCT-15 colon, with K-562 leukemia and with UO-31 renal was > 100 µM in each case. The TGI with DMS 114 small cell lung and in the experiment on DLD-1 colon was > 100 µM in each case.

Regarding `O=c1/c(=C/c2c(O)ccc3ccccc23)sc2nc3ccccc3n12`, the TGI in the experiment with A498 renal, in the experiment with M14 melanoma, in the experiment with HCT-15 colon, in the experiment on K-562 leukemia, in the experiment on UO-31 renal and with DMS 114 small cell lung was > 100 µM throughout. The TGI in the experiment on DLD-1 colon was > 100 µM.

With `CC(C)(CN1CCOCC1)C(=O)/C=C/c1ccc(/C=C/C(=O)C(C)(C)CN2CCOCC2)cc1`, the TGI was 3.6 µM with A498 renal; 7.63 µM in the experiment with RPMI-8226 leukemia; 4.03 µM in the experiment on HCT-15 colon; 3.15 µM with UO-31 renal; 2.16 µM in the experiment on DMS 114 small cell lung; 1.19 µM with DLD-1 colon.

Turning to `O=c1nc(NC(c2ccccc2)(c2ccccc2)c2ccccc2)ccn1CCCl`, the TGI was > 100 µM in the experiment on A498 renal; 55.7 µM in the experiment on RPMI-8226 leukemia; > 100 µM in the experiment on HCT-15 colon; 63.3 µM with K-562 leukemia; > 100 µM in the experiment on UO-31 renal; 37.9 µM with DMS 114 small cell lung. Further, in the experiment with DLD-1 colon, the TGI is > 100 µM.

Take `O=C1OC(c2ccccc2)(c2ccccc2)c2ccc3ccc(F)cc3c21`: the TGI in the experiment with A498 renal, in the experiment with RPMI-8226 leukemia, in the experiment with M14 melanoma, with HCT-15 colon, with K-562 leukemia and in the experiment with UO-31 renal was > 100 µM in each case. For the same compound, the TGI in the experiment on DMS 114 small cell lung and in the experiment with DLD-1 colon was > 100 µM in each case.

With `Cc1cc2c(cc1C)[n+](=O)c(C(=O)/C=C/c1ccc3c(c1)OCO3)c(C)n2[O-]`, the TGI in the experiment on DU-145 prostate, in the experiment with A498 renal, in the experiment with RPMI-8226 leukemia, with M14 melanoma, in the experiment with HCT-15 colon and with K-562 leukemia was > 100 µM each time. Further, the TGI is > 100 µM in the experiment with MDA-MB-231 breast, > 100 µM with UO-31 renal, > 84.5 µM in the experiment on DMS 114 small cell lung and > 100 µM with DLD-1 colon.
